Test results: PMC9508125, “The evolutionary advantage of an aromatic clamp in plant family 3 glycoside exo-hydrolases” (Nature Communications, 2022)
Where a chain is given by its changes, count along the chain named.

Key:
Assay in all cases: Steady-state apparent kinetic constants with substrates
Type in all cases: biochemical
Conditions in all cases: substance is the substrate
HvExoI W286Y mutant = target: T1, HvExoI W286Y mutant (Hordeum vulgare, UniProt Q9XEI3, W311Y)
T1 sequence (Q9XEI3 26-630 W311Y): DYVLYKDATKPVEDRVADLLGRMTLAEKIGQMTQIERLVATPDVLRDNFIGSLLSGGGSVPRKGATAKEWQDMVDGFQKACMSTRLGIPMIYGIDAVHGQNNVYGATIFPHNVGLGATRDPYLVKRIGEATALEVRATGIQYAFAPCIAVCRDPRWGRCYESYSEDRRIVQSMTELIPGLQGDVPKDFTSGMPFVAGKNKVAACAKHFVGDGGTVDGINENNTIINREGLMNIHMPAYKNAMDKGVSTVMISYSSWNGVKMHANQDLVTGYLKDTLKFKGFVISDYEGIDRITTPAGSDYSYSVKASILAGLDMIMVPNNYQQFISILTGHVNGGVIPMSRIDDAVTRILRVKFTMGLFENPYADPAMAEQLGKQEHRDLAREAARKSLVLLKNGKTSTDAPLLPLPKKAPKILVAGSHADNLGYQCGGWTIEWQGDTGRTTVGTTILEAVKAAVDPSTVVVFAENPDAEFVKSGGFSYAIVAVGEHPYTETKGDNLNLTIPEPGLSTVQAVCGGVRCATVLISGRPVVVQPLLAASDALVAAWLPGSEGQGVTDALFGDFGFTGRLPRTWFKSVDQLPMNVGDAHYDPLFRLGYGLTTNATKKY
Method: (§1) Dependency of activities of WT and mutant HvExoI on pH (McIlvaine buffers in the pH range of 3.5–8.5 at 30 °C) and temperature (100 mM sodium acetate buffer, pH 5.25, temperature range 0–80 °C, 15 min incubations) were determined using 0.2% (w/v) 4NP-Glc[21],[59]. Relative rates of hydrolysis of β-linked poly-, oligosaccharides, and aryl-glucosides were determined using near-homogenous HvExoI at 50 pmoles. […] Kinetic parameters were calculated from the analyses of Michaelis-Menten plots with Grafit 7.0.3[62] and processed by a proportional weighted fit, using nonlinear regression. The relative rates of hydrolysis, kinetic, and inhibition data were rounded to one or two decimal points (Supplementary Tables 2–4).

HvExoI W434F mutant = target: T2, HvExoI W434F mutant (Hordeum vulgare, UniProt Q9XEI3, W459F)
T2 sequence (Q9XEI3 26-630 W459F): T1 sequence (Q9XEI3 26-630 W311Y) with Y286W, W434F
Method: as §1

HvExoI W434H mutant = target: T3, HvExoI W434H mutant (Hordeum vulgare, UniProt Q9XEI3, W459H)
T3 sequence (Q9XEI3 26-630 W459H): T1 sequence (Q9XEI3 26-630 W311Y) with Y286W, W434H
Method: as §1

Substance: laminarin
- Km (HvExoI W286Y mutant): 100 ± 10 µM
- kcat (HvExoI W286Y mutant): 30.3 ± 2.4 s⁻¹
- Km (HvExoI W434F mutant): 200 ± 10 µM
- kcat (HvExoI W434F mutant): 8.0 ± 0.7 s⁻¹
- Km (HvExoI W434H mutant): 300 ± 20 µM
- kcat (HvExoI W434H mutant): 8.5 ± 0.9 s⁻¹
